From ChEMBL document CHEMBL1129722, “Synthesis and biological activity of conformationally constrained sialyl Lewis X analogues with reduced carbohydrate character” (Bioorg Med Chem Lett, 1996)

Molecular target: T1, E-selectin (Homo sapiens, UniProt P16581)
T1 sequence (P16581 whole entry): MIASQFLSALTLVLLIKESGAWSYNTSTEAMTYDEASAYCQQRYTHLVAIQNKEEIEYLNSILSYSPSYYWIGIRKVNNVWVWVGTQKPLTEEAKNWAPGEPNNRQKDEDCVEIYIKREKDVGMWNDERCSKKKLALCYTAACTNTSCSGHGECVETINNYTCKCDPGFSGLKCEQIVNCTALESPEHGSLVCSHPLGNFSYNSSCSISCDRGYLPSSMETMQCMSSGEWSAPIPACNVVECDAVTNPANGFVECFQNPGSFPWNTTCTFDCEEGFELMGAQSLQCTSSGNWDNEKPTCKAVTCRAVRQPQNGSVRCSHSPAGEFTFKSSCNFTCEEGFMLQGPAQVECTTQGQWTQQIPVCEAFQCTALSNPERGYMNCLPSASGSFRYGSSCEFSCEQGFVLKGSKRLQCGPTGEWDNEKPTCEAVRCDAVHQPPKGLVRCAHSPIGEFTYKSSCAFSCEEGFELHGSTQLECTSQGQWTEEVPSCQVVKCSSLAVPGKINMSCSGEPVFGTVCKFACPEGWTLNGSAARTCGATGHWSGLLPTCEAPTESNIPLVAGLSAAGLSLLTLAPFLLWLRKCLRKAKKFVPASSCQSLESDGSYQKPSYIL
Experiment: Compound was tested for its ability to inhibit the binding to recombinant human Selectin E immobilized on SPA beads of radiolabeled HL60 cell membrane containing sLex.
Format: cell membranes, HL-60

Row | IC50 [µM] | SMILES
1 | 500 | C[C@@H]1O[C@@H](OC2CCCCC2O[C@@H]2O[C@@H](CO)[C@H](O)[C@H](OCC(=O)O)[C@@H]2O)[C@@H](O)[C@@H](O)[C@@H]1O (stereo partly drawn)
2 | 2100 | CC(O[C@@H]1O[C@@H](C)[C@@H](O)[C@H](O)[C@@H]1O)C(C)O[C@@H]1O[C@@H](CO)[C@H](O)[C@H](OCC(=O)O)[C@@H]1O (stereo partly drawn)
3 | > 10000 | C[C@@H]1O[C@@H](O[C@@H]2CCCC[C@H]2O[C@@H]2O[C@@H](CO)[C@H](O)[C@H](OCC(=O)O)[C@@H]2O)[C@@H](O)[C@@H](O)[C@@H]1O
